Assay results as given in US20140086901A1, “Inhibition of Post-Radiation Tumor Growth” (The Board of Trustees of the Leland Stanford Junior …, priority 2008, published 2014).
Like-named read-outs stand apart in the source and are kept apart here.

What was measured:
[1] = Body weight monitoring during drug treatment to assess side effects; conditions: for loss in body weight during treatment: mice
glioblastoma tumors = experiment: Intracranial glioblastoma tumor growth with or without irradiation (bioluminescence imaging); type: in vivo, mouse
Experimental: Tumor growth was analyzed by using an IVIS in vivo imaging system (Caliper Life Sciences, Hopkinton, Mass.) to monitor the bioluminescence imaging of brain tumor.
AMD3100 (Sigma-Aldrich) was prepared in sterile saline.
After tumor inoculation on brain, carragenan treatment was done every five days.

[2] = test system: CD45+CD11b+ and CD45+F4/80+ cells; experiment: Immunostaining of brain samples for BM-derived myelomonocytic cells in glioblastoma tumors; type: in vivo, mouse; conditions: irradiation plus drug; harvested 18 days after irradiation
Source text: Primary antibodies for immunofluorescent staining included a rat monoclonal CD31/PECAM-1 (MEC13.3; BD Pharmingen, San Diego, Calif.), a rabbit polyclonal GFP antibody (Invitrogen, Eugene, Oreg.), a rabbit polyclonal MMP-9 (Abeam, Cambridge, Mass.), a biotinylated CD11b/macrophage-associated antigen-1α (M1/70; BD Pharmingen), a biotinylated CD11c (HL3; BD Pharmingen), a biotinylated Gr-1/Ly-6C (RB6-8C5; BD Pharmingen), rat monoclonal F4/80 (A3-1, Gnetex, Irvine, Calif.), and CD45 (BD Pharmingen). Anti phosphorylated CXCR-4 polyclonal antibody was obtained from Dr. J B Rubbin at Washington University.
Unless otherwise indicated, […] frozen sections of tumors were dried in air, hydrated with PBS, blocked with 5% goat serum in PBS (containing 0.03% Triton X-100) for 30 min, and incubated with primary antibodies for 2 hr at room temperature (RT). Sections were washed three times in PBS, followed by secondary antibody for 1 hr at RT. For glioblastomas, 5 μm frozen sections of tumors were dried in air, hydrated with PBS, blocked with 5% goat serum in PBS (containing 0.03% Triton X-100) for 30 min, and incubated with primary antibodies over night at 4° C. Sections were washed three times in PBS, followed by secondary antibody for 40 min at room temperature. […]

MT1A2 tumors = experiment: MT1A2 tumor growth on pre-irradiated tissues of BM-transplanted mice; conditions: 100 μg/kg intraperitoneally once per day for up to 6 weeks
[3] = mouse, in vivo

Compound: c1cc(CN2CCCNCCNCCCNCC2)ccc1CN1CCCNCCNCCCNCC1 [AMD3100]
- loss in body weight during treatment [1]: did not show any significant loss in the weight
- growth of irradiated tumors (glioblastoma tumors; early tumor model, 2 Gy five times from day 11, drug for three weeks): significantly inhibited
- growth of irradiated tumors (glioblastoma tumors; late tumor model, 15 Gy on day 21, drug for three weeks): significantly inhibited

Compound: N#Cc1ccc(/C=C/C(=O)O)cc1 [NSC-134754]
- loss in body weight during treatment [1]: did not show any significant loss in the weight
- CD45+CD11b+ cells in glioblastoma tumors [2]: absence
- CD45+F4/80+ cells in glioblastoma tumors [2]: absence
- post-irradiation tumor growth (glioblastoma tumors; irradiation on day 20 plus drug daily for three weeks): decreased post-irradiation tumor growth

Compound: O=P(O)(O)C(O)(Cn1ccnc1)P(=O)(O)O [ZA, aminobisphosphonate zolendronic acid]
- tumor growth on the irradiated site (MT1A2 tumors; MMP-9 KO+WT BM mice): significant inhibition of tumor growth
- tumor growth on pre-irradiated tissues (MT1A2 tumors; WT+KO BM mice): no effect on tumor growth
- loss in weight during treatment ([1]; treated every day): less than 10 % of body weight

Compound: carrageenan
- loss in body weight during treatment [3]: did not show any significant loss in the weight
- growth of irradiated tumors (glioblastoma tumors; treated 1, 3 and 7 days prior to implantation, then every five days, 15 Gy on day 26): significantly inhibited
